SMILES strings stand for the structures. Converted amounts (≈) assume the structure as drawn.

Sequence of 2-acylglycerol O-acyltransferase 2 (Homo sapiens, UniProt Q3SYC2) (Q3SYC2 whole entry): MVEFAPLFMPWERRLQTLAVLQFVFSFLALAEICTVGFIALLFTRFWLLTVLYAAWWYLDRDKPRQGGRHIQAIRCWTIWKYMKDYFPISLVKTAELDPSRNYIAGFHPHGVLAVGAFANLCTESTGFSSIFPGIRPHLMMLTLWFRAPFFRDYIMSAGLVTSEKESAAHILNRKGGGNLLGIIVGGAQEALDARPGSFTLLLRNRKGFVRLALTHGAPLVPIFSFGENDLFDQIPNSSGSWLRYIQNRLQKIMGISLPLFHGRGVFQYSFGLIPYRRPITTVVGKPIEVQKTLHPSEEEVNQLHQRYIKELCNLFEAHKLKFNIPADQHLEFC

Test system in the first series: not listed separately
Kind of series: AUC (0 to 4 hrs) in mouse at 100 mg/kg, po. Type of series: ADME, organism-based. The arrangement: dose 100 mg/kg, time < 4 hr, route oral. The settings on record: in vivo.
The compound `COc1cc(F)ccc1NS(=O)(=O)c1ccc2c(c1)CN(C(=O)Nc1ccc(C(C)(C)C)cc1)C2` gave an AUC(0-t) at 4 h of 134 ng·h/mL.

For `CC(C)(C)c1ccc(CCN2CCc3cc(S(=O)(=O)Nc4ccc(F)cc4)ccc3C2)cc1`, the exposure AUC(0-t) at 4 h turned out to be 1810 ng·h/mL. Against the preceding compound, the AUC(0-t) at 4 h is about 14-fold higher.

Test system in another series: not listed separately
Kind of series: Cmax in mouse at 100 mg/kg, po. Type of series: ADME, organism-based. The arrangement: dose 100 mg/kg, route oral. Conditions: in vivo.
With `COc1cc(F)ccc1NS(=O)(=O)c1ccc2c(c1)CN(C(=O)Nc1ccc(C(C)(C)C)cc1)C2`, the Cmax is 94.3 ng/mL.

`CC(C)(C)c1ccc(CCN2CCc3cc(S(=O)(=O)Nc4ccc(F)cc4)ccc3C2)cc1` gave a Cmax of 1200 ng/mL.

Test system in the next series: not listed separately
Kind of series: Drug metabolism in mouse liver microsomes incubated for 15 mins. In kind it is ADME. Conditions: read-out: Drug metabolism.
Consider `CC(C)(C)c1ccc(NC(=O)N2Cc3ccc(S(=O)(=O)Nc4ccc(F)cc4)cc3C2)cc1`, for which the metabolised at 0.25 h was found to be 70.9%.

On to `COc1cc(F)ccc1NS(=O)(=O)c1ccc2c(c1)CN(C(=O)Nc1ccc(C(C)(C)C)cc1)C2`, for which the metabolised at 0.25 h is 60.6%.

`COc1ccc(NS(=O)(=O)c2ccc3c(c2)CN(C(=O)Nc2ccc(C(C)(C)C)cc2)C3)c(F)c1`: the metabolised at 0.25 h is 51.1%.

As for `CCCCCOc1ccc(NS(=O)(=O)c2ccc3c(c2)CN(C(=O)Nc2ccc(C(C)(C)C)cc2)C3)c(F)c1`, the metabolised at 0.25 h was 12.6%.

`CC(C)(C)c1ccc(CCN2CCc3cc(S(=O)(=O)Nc4ccc(F)cc4)ccc3C2)cc1`: the metabolised at 0.25 h was 47.8%.

For a further series, the system named is Mus musculus. Kind of series: Inhibition of fat absorption in mouse assessed as reduction in plasma triglyceride AUC (0 to 4 hrs) level at 100 mg/kg, po by oral lipid tolerance test. In kind it is functional.
Details: not given
As for `CC(C)(C)c1ccc(CCN2CCc3cc(S(=O)(=O)Nc4ccc(F)cc4)ccc3C2)cc1`, the inhibition in vivo at 100 mg/kg stood at 57%.

Another series has as its target 2-acylglycerol O-acyltransferase 2 (Homo sapiens, UniProt Q3SYC2). Kind of series: Inhibition of human recombinant MGAT2 assessed as reduction in enzyme-mediated deacylation of oleoyl-CoA incubated for 20 mins by CPM dye based fluorescence assay.
Details: not given
As to `CC(C)(C)c1ccc(NC(=O)N2Cc3ccc(S(=O)(=O)Nc4ccc(F)cc4)cc3C2)cc1`, the half-inhibitory concentration (IC50) was found to be 0.594 µM.

For the compound `CC(C)(C)c1ccc(NC(=O)N2Cc3ccc(S(=O)(=O)Nc4ccc(F)cc4F)cc3C2)cc1`, the half-maximal inhibitory concentration (IC50) came out at 0.685 µM.

As for `CC(C)(C)c1ccc(NC(=O)N2Cc3ccc(S(=O)(=O)Nc4ccc(F)cc4Cl)cc3C2)cc1`, the IC50 came to 1.11 µM.

Consider `CCc1cc(F)ccc1NS(=O)(=O)c1ccc2c(c1)CN(C(=O)Nc1ccc(C(C)(C)C)cc1)C2`, for which the 50% inhibitory concentration (IC50) turned out to be 2.49 µM.

Turning to `CCOc1cc(F)ccc1NS(=O)(=O)c1ccc2c(c1)CN(C(=O)Nc1ccc(C(C)(C)C)cc1)C2`, the concentration for half-maximal inhibition (IC50) came to 0.733 µM.

In the case of `CCCOc1cc(F)ccc1NS(=O)(=O)c1ccc2c(c1)CN(C(=O)Nc1ccc(C(C)(C)C)cc1)C2`, the IC50 stood at 2.3 µM.

As for `COc1ccc(NS(=O)(=O)c2ccc3c(c2)CN(C(=O)Nc2ccc(C(C)(C)C)cc2)C3)c(OC)c1`, the IC50 is 3.16 µM.

For the compound `CCOc1ccc(NS(=O)(=O)c2ccc3c(c2)CN(C(=O)Nc2ccc(C(C)(C)C)cc2)C3)c(F)c1`, the IC50 was determined as 5.2 µM.

On to `CCCOc1ccc(NS(=O)(=O)c2ccc3c(c2)CN(C(=O)Nc2ccc(C(C)(C)C)cc2)C3)c(F)c1`, for which the IC50 was 1.98 µM.

On to `CCCCOc1ccc(NS(=O)(=O)c2ccc3c(c2)CN(C(=O)Nc2ccc(C(C)(C)C)cc2)C3)c(F)c1`, for which the IC50 is 0.547 µM.

Turning to `CC(C)(C)c1ccc(CC(=O)N2Cc3ccc(S(=O)(=O)Nc4ccc(F)cc4)cc3C2)cc1`, the IC50 came out at 8.07 µM.

In the case of `CC(C)(C)c1ccc(CCN2Cc3ccc(S(=O)(=O)Nc4ccc(F)cc4)cc3C2)cc1`, the IC50 amounted to 2.12 µM.

Consider `CC(C)(C)c1ccc(CCN2CCc3ccc(S(=O)(=O)Nc4ccc(F)cc4)cc3C2)cc1`, for which the half-maximal inhibitory concentration (IC50) stood at 3.06 µM.

Consider `CC(C)(C)c1ccc(CCN2CCc3cc(S(=O)(=O)Nc4ccc(F)cc4)ccc3C2)cc1`, for which the concentration for half-maximal inhibition (IC50) was 1.52 µM.

Test system in the next series: not listed separately
Kind of series: Solubility in water. Type of series: physicochemical.
Details: not given
The compound `CC(C)(C)c1ccc(NC(=O)N2Cc3ccc(S(=O)(=O)Nc4ccc(F)cc4)cc3C2)cc1` displayed a solubility of less than 0.07 µg/mL.

`COc1cc(F)ccc1NS(=O)(=O)c1ccc2c(c1)CN(C(=O)Nc1ccc(C(C)(C)C)cc1)C2` had a solubility of 0.607 µg/mL (≈ 1.22 µM).

As for `COc1ccc(NS(=O)(=O)c2ccc3c(c2)CN(C(=O)Nc2ccc(C(C)(C)C)cc2)C3)c(F)c1`, the solubility is less than 0.06 µg/mL.

`CCCCCOc1ccc(NS(=O)(=O)c2ccc3c(c2)CN(C(=O)Nc2ccc(C(C)(C)C)cc2)C3)c(F)c1`: the solubility was less than 0.06 µg/mL.

In turn, `CC(C)(C)c1ccc(CC(=O)N2Cc3ccc(S(=O)(=O)Nc4ccc(F)cc4)cc3C2)cc1` came in with a solubility of less than 0.11 µg/mL.

The compound `CC(C)(C)c1ccc(CCN2Cc3ccc(S(=O)(=O)Nc4ccc(F)cc4)cc3C2)cc1` gave a solubility of 270 µg/mL (≈ 597 µM).

`CC(C)(C)c1ccc(CCN2CCc3cc(S(=O)(=O)Nc4ccc(F)cc4)ccc3C2)cc1` gave a solubility of 641 µg/mL (≈ 1370 µM).

The target in a further series is 2-acylglycerol O-acyltransferase 2 (Mus musculus, UniProt Q80W94). Kind of series: Inhibition of mouse recombinant MGAT2 assessed as reduction in enzyme-mediated deacylation of oleoyl-CoA incubated for 20 mins by CPM dye based fluorescence assay.
Sequence of 2-acylglycerol O-acyltransferase 2 (Mus musculus, UniProt Q80W94) (Q80W94 whole entry): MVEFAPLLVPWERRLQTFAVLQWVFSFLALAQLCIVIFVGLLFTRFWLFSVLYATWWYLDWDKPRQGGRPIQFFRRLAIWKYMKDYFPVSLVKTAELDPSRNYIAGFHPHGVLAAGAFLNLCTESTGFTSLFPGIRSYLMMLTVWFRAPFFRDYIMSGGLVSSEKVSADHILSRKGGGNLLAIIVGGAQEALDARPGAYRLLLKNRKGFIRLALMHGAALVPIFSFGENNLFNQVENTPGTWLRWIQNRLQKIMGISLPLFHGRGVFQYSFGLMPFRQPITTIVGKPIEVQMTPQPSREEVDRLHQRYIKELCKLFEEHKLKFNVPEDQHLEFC
Details: not given
On to `CC(C)(C)c1ccc(NC(=O)N2Cc3ccc(S(=O)(=O)Nc4ccc(F)cc4)cc3C2)cc1`, for which the IC50 was found to be 1.31 µM.

Regarding `CC(C)(C)c1ccc(CCN2CCc3cc(S(=O)(=O)Nc4ccc(F)cc4)ccc3C2)cc1`, the half-inhibitory concentration (IC50) amounted to 1.17 µM.

Test system in the next series: not listed separately
Kind of series: Solubility in FeSSIF solution at pH 5.0. In kind it is physicochemical.
Details: not given
On to `COc1cc(F)ccc1NS(=O)(=O)c1ccc2c(c1)CN(C(=O)Nc1ccc(C(C)(C)C)cc1)C2`, for which the concentration in solution (solubility) was 28.3 µg/mL (≈ 56.9 µM).

For the compound `COc1ccc(NS(=O)(=O)c2ccc3c(c2)CN(C(=O)Nc2ccc(C(C)(C)C)cc2)C3)c(F)c1`, the solubility came out at 0.783 µg/mL (≈ 1.57 µM).

As for `CCCCCOc1ccc(NS(=O)(=O)c2ccc3c(c2)CN(C(=O)Nc2ccc(C(C)(C)C)cc2)C3)c(F)c1`, the solubility is 10.2 µg/mL (≈ 18.4 µM).

Regarding `CC(C)(C)c1ccc(CCN2CCc3cc(S(=O)(=O)Nc4ccc(F)cc4)ccc3C2)cc1`, the concentration in solution (solubility) came to 385 µg/mL (≈ 825 µM).

Test system in a further series: not listed separately
Kind of series: Drug metabolism in human liver microsomes incubated for 15 mins. Type of series: ADME. Conditions: read-out: Drug metabolism.
As for `CC(C)(C)c1ccc(NC(=O)N2Cc3ccc(S(=O)(=O)Nc4ccc(F)cc4)cc3C2)cc1`, the metabolised at 0.25 h was 12.3%.

Regarding `COc1cc(F)ccc1NS(=O)(=O)c1ccc2c(c1)CN(C(=O)Nc1ccc(C(C)(C)C)cc1)C2`, the metabolised at 0.25 h amounted to 43.1%.

With `COc1ccc(NS(=O)(=O)c2ccc3c(c2)CN(C(=O)Nc2ccc(C(C)(C)C)cc2)C3)c(F)c1`, the metabolised at 0.25 h was found to be 20.6%.

For the compound `CCCCCOc1ccc(NS(=O)(=O)c2ccc3c(c2)CN(C(=O)Nc2ccc(C(C)(C)C)cc2)C3)c(F)c1`, the metabolised at 0.25 h came out at 0.1%.

Regarding `CC(C)(C)c1ccc(CCN2CCc3cc(S(=O)(=O)Nc4ccc(F)cc4)ccc3C2)cc1`, the metabolised at 0.25 h turned out to be 14.6%.
